Where two headings read alike, the source gives them in different places.
What was measured:
phospho-Akt = experiment: Western blot of Akt phosphorylation in HUVEC; assay type: cell-based, human; settings: for increase in Akt phosphorylation levels: 100 nM, after 5 minutes; for time of maximum Akt phosphorylation levels: data not shown; for Akt phosphorylation with Pertussis toxin: incubation with Pertussis toxin
From the text: (§1) Endothelial cell morphogenesis, a phenomenon that requires endothelial cell migration, survival and adherens junction assembly, is mediated by the ligand-dependent activation of S1P1 and S1P3 receptors. […] The effects of FTY720-P and analogs on Akt and ERK phosphorylation in HUVEC were studied in a Western blot analysis. Confluent cultures of HUVEC cells were serum starved for two hours in 0.1% ffa-BSA M199 before treatments. Then, they were washed with ice-cold phosphate buffered saline (PBS) containing 1 mM sodium fluoride and 1 mM sodium orthovanadate and homogenized in radioimmunoprecipitation assay buffer (0.1% sodium dodecyl sulfate (SDS), 0.5% sodium deoxycholate, 1% NP-40, 1 mM sodium orthovanadate, 50 mM β-glycerophosphate and 1× protease inhibitor cocktail). Samples were centrifuged 10,000×g for 10 minutes, and protein concentrations of supernatants were determined by Bradford assay (BioRad Protein Dye Reagent). Equal amounts of protein were separated on a 10% polyacrylamide gel and blotted to a nitrocellulose membrane. Immunoblot analysis was performed using Phospho-Akt, Akt, phospho-ERK1/2 or ERK-1/2 antibodies.

phospho-ERK-1/2 = experiment: Western blot of ERK-1/2 phosphorylation in HUVEC; assay type: cell-based, human; settings: for increase in ERK-1/2 phosphorylation levels: 100 nM, after 5 minutes; for time of maximum ERK phosphorylation levels: data not shown; for ERK-1 and ERK-2 phosphorylation with Pertussis toxin: incubation with Pertussis toxin
From the text: as §1

HUVEC [1] = experiment: apoptosis induced by serum deprivation in HUVEC (DNA fragmentation); assay type: cell-based, human; settings: for Emax at 0.01 µM: Homo sapiens, HUVEC, 10 nM, 8 hours serum deprivation, read-out: inhibition of DNA fragmentation (maximum effect); for anti-apoptotic effect with Pertussis toxin: Pertussis toxin treatment
Description: Since ERK-1 and ERK-2 activation is necessary for the survival effect of S1P in endothelial cells, it was tested if FTY720-P and its analog (R)-AFD could prevent apoptosis induced by serum deprivation in HUVEC. In this test, HUVEC cells were labeled with {methyl-^3H}-thymidine (1 μCi/ml) for 16 hours. Then, they were washed and 0.1% ffa-BSA M199 containing the different treatments was added. After 8 hours, fragmented DNA was solubilized and quantified as described.

VE-cadherin = VE-cadherin localization by immunofluorescence in HUVEC; assay type: cell-based, human; settings: 30 minutes; 10 nM (S1P 100 nM)
Description: The effects of FTY720-P and (R)-AFD on the localization of VE-cadherin were studied using immunofluorescence analysis. In this study, 2×10^5 cells were plated in 35 millimeter glass bottom petri dishes. Three days later, the cells were washed and serum starved for 3 hours before treatments. Then, the cells were washed with ice-cold PBS, fixed, and immunofluorescence analysis with VE-cadherin antibody was conducted (1 μg/ml Santa Cruz). The primary antibody staining was visualized with Rhodamine-conjugated goat anti-mouse (1:1000, Cappel) IgG. Confocal microscopy was conducted on a Zeiss LSM 510 laser-scanning confocal microscope. Rhodamine fluorescence was excited using a 543 nm Helium/Neon laser and emitted fluorescence was detected with a […] long-pass filter.

[2] = tested on: Mouse embryonic endothelial cells; experiment: VEGF-induced paracellular permeability (Transwell, FITC-dextran); assay type: cell-based; settings: 100 nM, 1 hr pretreatment, 45 minute time point, VEGF 50 ng/ml
Description: Several studies have shown that VE-cadherin could be an important determinant of vascular permeability. […] A cellular system was used to assess the effects of S1P, FTY720-P and (R)-AFD on vascular permeability. Mouse embryonic endothelial cells (5×10^4) were cultured for 2 days in Transwell polycarbonate filters (6.5 mm diameter, 0.4 μm pores; Costar). Culture medium was replaced with serum/phenol red-free DMEM (HEPES buffer, L-glutamine, and pyridoxine hydrochloride) (0.1 mL upper chamber and 0.6 mL lower chamber). […] FITC-dextran (average MW=2,000 kDa), was added to the upper compartment either in the absence or presence of murine recombinant VEGF (50 ng/ml). Media from lower wells were taken after indicated time periods (5-45 minutes). Samples were placed in black solid bottom 96 well plates (Costar) and fluorescence intensities were measured using CytoFluor(R) fluorescence multi-well plate reader (Applied Biosystems) at 488 nm excitation. Data=mean±SE of duplicates. N=2. *p<0.01 VEGF vs. untreated. #p<0.01 treatments+VEGF vs. VEGF alone.

HUVEC [3] = experiment: HUVEC migration (96 well chemotaxis microchamber); settings: for fold induction at 0.01 µM: read-out: migration, fold induction at maximum effect; for induced migration in presence of Pertussis toxin: Pertussis toxin 200 ng/mL; for induction of endothelial cell migration: compound used directly as chemoattractant, 4 hours
Description: Briefly, polycarbonate filters with a pore size of 8 micrometers (μm) were coated with 5 micrograms per milliliter (μg/ml) fibronectin. […] Approximately 5×10^4 cells suspended in M199 with 0.1% bovine serum albumin were placed in the upper compartment. The cells were allowed to migrate for 4 hours at 37° C. in a humidified chamber with 5% CO2. After the incubation period, the filter was removed, and cells were stained in 0.1% crystal violet and eluted with 10% acetic acid in 96-well plates.
After incubation, conditioned medium was removed, centrifuged at 1,000×g for 10 minutes, and used in the migration assay.

[4] = tested on: kinase activity present in HUVEC (sphingosine kinase); experiment: in vitro kinase assay with total cell extract from HUVEC; assay type: biochemical, human; settings: HUVEC kinase activity, 100 μM
Description: To confirm that FTY720 and (R)-AAL are phosphorylated by endothelial cells, an in vitro kinase assay was performed with both total cell extract and conditioned medium from HUVEC. […] Cells were scraped at 4° C. with 400 μl of 25 mM HEPES pH 7.5, […], 1× protease inhibitor mixture, and disrupted by brief sonication. Cellular homogenates were centrifuged for 10 minutes, 4° C. at 20,000×g. In the kinase assay, 300 μl of conditioned medium (derived from 5×10^5 cells for 3 hours of incubation) or 10 μg of total cell extract from HUVEC were used as a source of kinase activity. […] Lipids were extracted and samples were resuspended in 50 μl of chloroform. Lipids were resolved by TLC on Silica Gel G60 using 1-butanol/acetic acid/water (60/20/20 volume/volume) buffer and quantified with a PhosphorImager (Molecular Dynamics).

[5] = tested on: VEGF-induced vascular permeability; experiment: mouse ear microvascular permeability assay (VEGF-induced); assay type: in vivo, FVB/N mice; settings: mice, single oral administration (gavage, 50 μg) 5 hours prior
Description: The role of plasma borne FTY720-P or (R)-AFD in the regulation of vascular permeability was tested in vivo. In order to test this possibility, an in vivo vascular permeability model was used in FTY720, (R)-AFD or (S)-AAL-pretreated mice. […] Five hours post-gavage, animals were anesthetized with 2% Avertin™ (0.5 cc/20 g) and infused through the tail vein with 100 μl FITC-dextran (5 mg/ml, 165 kDa). Animals were placed on a warming table under a fluorescent dissecting microscope (Zeiss STV11, Zeiss, Inc.) and the central vessels in the ear were imaged. Control saline or mouse vascular endothelial growth factor (mVEGF, 10 ng/ml) was injected subdermally into the middle ear using a 30 gauge needle (30 μl). Ear vasculature was then imaged with fixed exposure times in a stationary position from 5 minutes to 120 minutes post-injection. Fluorescence images were then quantified using pixel-based threshold in ImageProPlus (Media Cybernetics, Inc.) and quantified.

SK2 = molecular target: T1, SK2 (Mus musculus, UniProt Q9JIA7); settings: SK2-[…]T extract, 100 μM
T1 sequence (Q9JIA7 1-617): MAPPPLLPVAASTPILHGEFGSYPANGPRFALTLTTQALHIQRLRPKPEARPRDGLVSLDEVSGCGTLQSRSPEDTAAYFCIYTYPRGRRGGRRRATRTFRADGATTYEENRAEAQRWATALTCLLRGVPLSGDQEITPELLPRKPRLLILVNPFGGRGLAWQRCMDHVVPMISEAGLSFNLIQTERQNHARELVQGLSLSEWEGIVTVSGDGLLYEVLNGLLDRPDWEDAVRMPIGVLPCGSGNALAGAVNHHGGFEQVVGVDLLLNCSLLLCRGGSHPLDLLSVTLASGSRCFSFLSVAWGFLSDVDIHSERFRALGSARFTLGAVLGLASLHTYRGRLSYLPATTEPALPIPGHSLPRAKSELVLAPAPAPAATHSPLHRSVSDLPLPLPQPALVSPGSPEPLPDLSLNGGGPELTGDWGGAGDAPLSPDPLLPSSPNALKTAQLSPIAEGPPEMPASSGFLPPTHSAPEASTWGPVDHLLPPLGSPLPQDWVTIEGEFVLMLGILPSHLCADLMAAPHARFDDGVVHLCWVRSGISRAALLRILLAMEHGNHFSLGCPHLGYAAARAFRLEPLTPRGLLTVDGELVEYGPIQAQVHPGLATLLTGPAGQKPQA

Structure (SMILES)	increase in Akt phosphorylation levels (phospho-Akt)	Akt phosphorylation (in words) (phospho-Akt; 5 minute stimulation)	time of maximum Akt phosphorylation levels (phospho-Akt)	Akt phosphorylation with Pertussis toxin (phospho-Akt)	increase in ERK-1/2 phosphorylation levels (phospho-ERK-1/2)	ERK-1/2 phosphorylation (in words) (phospho-ERK-1/2; 5 minute stimulation)	time of maximum ERK phosphorylation levels (phospho-ERK-1/2)	ERK-1 and ERK-2 phosphorylation with Pertussis toxin (phospho-ERK-1/2)	concentration of maximum anti-apoptotic effect (HUVEC [1])	Emax at 0.01 µM (HUVEC [1])	anti-apoptotic effect with Pertussis toxin (HUVEC [1])	VE-cadherin localization at cell-cell contact regions / translocation to adherens junctions (VE-cadherin)	inhibition of VEGF-induced paracellular permeability [2]	concentration of maximum effect on migration (HUVEC [3])	fold induction at 0.01 µM (HUVEC [3]; Homo sapiens, HUVEC)	induced migration in presence of Pertussis toxin (HUVEC [3])	induction of endothelial cell migration (HUVEC [3])	also measured
CCCCCCCCc1ccc(CCC(N)(CO)COP(=O)(O)O)cc1 (stereo not drawn) [FTY720-P]	3.7 fold	higher than the one induced by S1P	5 min	blocked by incubation with Pertussis toxin	9.3 fold	higher than the one induced by S1P	5 min	blocked by incubation with Pertussis toxin	10 nM	~70%	blocked by Pertussis toxin treatment	increase in VE-cadherin localization at the cell-cell contact regions	profoundly inhibited	10 nM	13	blocked by Pertussis toxin	potent chemoattractants for HUVEC	
CCCCCCCOc1ccc(CC[C@@](C)(N)COP(=O)(O)O)cc1 [(R)-AFD]	4.5 fold	higher than the one induced by S1P	5 min	blocked by incubation with Pertussis toxin	8.2 fold	higher than the one induced by S1P	5 min	blocked by incubation with Pertussis toxin	10 nM	~70%	blocked by Pertussis toxin treatment	increase in VE-cadherin localization at the cell-cell contact regions	profoundly inhibited	10 nM	9	blocked by Pertussis toxin	potent chemoattractants for HUVEC	
CCCCCCCOc1ccc(CC[C@](C)(N)CO)cc1 [(S)-AAL, 2-amino-2-methyl-4-[4-heptoxy-phenyl]butane-1-ol]																		phosphorylation of the substrate [4]: undetectable; inhibition of vascular permeability induced by VEGF [5]: but not (S)-AAL also potently inhibited vascular permeability in vivo; phosphorylation of the substrate (SK2): barely detectable; migration induced by conditioned medium (HUVEC [3]; compound incubated with HUVEC for 3 hours, conditioned medium used as chemoattractant): did not induce migration after incubation with endothelial cells
CCCCCCCOc1ccc(CC[C@@](C)(N)CO)cc1 (stereo in doubt) [AAL, 2-amino-2-methyl-4-[4-heptoxy-phenyl]butane-1-ol]																		Akt phosphorylation (in words) (phospho-Akt): did not induce phospho-Akt or phospho-ERK-1/2 levels; ERK-1/2 phosphorylation (in words) (phospho-ERK-1/2): did not induce phospho-Akt or phospho-ERK-1/2 levels
CCCCCCCCCCCCC/C=C/[C@@H](O)[C@@H](N)COP(=O)(O)O [S1P, Sphingosine-1-phosphate, reference compound]			5 min	blocked by incubation with Pertussis toxin			5 min	blocked by incubation with Pertussis toxin			blocked by Pertussis toxin treatment	comparable to that observed for S1P	profoundly inhibited					fold induction at 0.1 µM (HUVEC [3]; Homo sapiens, HUVEC, read-out: migration, fold induction): 14

Reference: patent publication US7838562B2, “Methods of inhibiting vascular permeability and apoptosis” (University of Connecticut, priority 2004, dated 2010)
